pKd: −log10 of the molar value. Calls of active or inactive are those of the source. The rule behind the calls is not given here.
How the values were obtained:
HeLa [1] = assay: Induction of apoptosis in human HeLa cell line at 200 uM after 24 hrs by annexin V/conjugated 7-AAD nexin assay; format: functional
HeLa [2] = assay: Downregulation of c-MYC gene expression in human HeLa cell line at 100 uM after 24 hrs by RT-PCR analysis; format: functional
Nucleic Acid [3] = assay: Binding affinity to 22 mer c-MYC DNA G-quadruplex assessed as change in melting temperature at 0.2 uM by FRET assay; format: nucleic-acid assay
Nucleic Acid [4] = assay: Binding affinity to 22 mer c-MYC DNA G-quadruplex assessed as change in melting temperature at 0.4 uM by FRET assay; format: nucleic-acid assay
Nucleic Acid [5] = assay: Binding affinity to 22 mer c-MYC DNA G-quadruplex assessed as change in melting temperature at 0.8 uM by FRET assay; format: nucleic-acid assay
Nucleic Acid [6] = assay: Binding affinity to 22 mer c-MYC DNA G-quadruplex assessed as change in melting temperature at 1.2 uM by FRET assay; format: nucleic-acid assay
Nucleic Acid [7] = assay: Binding affinity to 22 mer c-MYC DNA G-quadruplex assessed as induction of quadruplex folding at 5 to 10 uM by CD spectroscopy; format: nucleic-acid assay
Calf thymus DNA = assay: Binding affinity to calf thymus DNA assessed as change in melting temperature at 0.2 to 1.6 uM by […]; format: nucleic-acid assay; conditions: Bos taurus
Nucleic Acid [8] = assay: Binding affinity to 22 mer c-MYC G-quadruplex by isothermal titration calorimetry; format: nucleic-acid assay
Nucleic Acid [9] = assay: Binding affinity to 22 mer c-MYC G-quadruplex assessed as effect on ligand-telomeric complex formation by […]; format: nucleic-acid assay
HeLa [10] = assay: Cytotoxicity against human HeLa cells at 100 uM after 5 days by propidium iodide staining-based flow cytometry; format: functional, cell-based
HeLa [11] = assay: Downregulation of c-MYC gene expression in human HeLa cell line at 200 uM after 24 hrs by RT-PCR analysis; format: functional

Tm (Nucleic Acid [3]) [°C]	Tm (Nucleic Acid [4]) [°C]	Tm (Nucleic Acid [5]) [°C]	Tm (Nucleic Acid [6]) [°C]	Activity (Nucleic Acid [7])	Activity (Calf thymus DNA)	K (Nucleic Acid [8]) [×10⁵ /M]	pKd (Nucleic Acid [9])	Compound	Activity (HeLa [1]) [%]	inhibition at 100 µM (HeLa [2]) [%]	Activity (HeLa [10])	inhibition at 200 µM (HeLa [11]) [%]
5	12	15	20	Active	inactive	5.7	5.68	NCCC(=O)NCC1=C2CNC(=O)C3=CC(CNC(=O)CCN)=C(CNC(=O)c4cc(CNC(=O)CCN)c(o4)CNC(=O)C(=C1)O2)O3.O=C(O)C(F)(F)F.O=C(O)C(F)(F)F.O=C(O)C(F)(F)F	22	50	inactive	–
2	4	6	8	Active	inactive	3.21	5.92	NCC1=C2CNC(=O)C3=CC(CN)=C(CNC(=O)c4cc(CN)c(o4)CNC(=O)C(=C1)O2)O3.O=C(O)C(F)(F)F.O=C(O)C(F)(F)F.O=C(O)C(F)(F)F	18	–	inactive	50
